Experiments:
radiation proctopathy [1] = details: topical; cited from earlier work
radiation proctopathy [2] = assay: randomized double-blinded trial of vitamin A versus placebo in patients with radiation proctopathy; type: in vivo, human; details: retinol palmitate 10,000 IU by mouth for 90 days versus placebo
Excerpt: (§1) The present inventor recently described a dramatic case of the patient with AIDS and anal carcinoma with developed a large radiation-induced anal ulceration with marked debility. The patient required high dose opioid therapy for control of anal pain. […] Radiation proctopathy is a form of injury of the rectum from radiation therapy administered for pelvic cancers such as cancers of the prostate, uterus and ovary. The present inventor recently designed, conducted and published a randomized double-blinded trial comparing vitamin A in the form of retinol palmitate (10,000 IU by mouth for 90 days) to placebo in patients with radiation proctopathy. […] The other form of vitamin A, (beta carotene), when applied topically, have the potential to enhance the effectiveness of retinol palmitate for treating radiation proctopathy and other anorectal disorders.

[3] = test system: radiation-induced anal ulceration; assay: case of patient with AIDS and anal carcinoma with radiation-induced anal ulceration, oral vitamin A; type: in vivo, human; details: single patient
Excerpt: as §1

wound healing = details: following burn injury and surgeries; cited from earlier work

Nc1ccc(O)c(C(=O)O)c1 [5-ASA, 5-aminosalicylic acid]
efficacy for radiation proctopathy (radiation proctopathy [1]): appear to be ineffective

CCCCCCCCCCCCCCCC(=O)OC/C=C(C)/C=C/C=C(C)/C=C/C1=C(C)CCCC1(C)C [vitamin A, retinol palmitate]
rectal symptoms of radiation proctopathy (radiation proctopathy [2]): significantly reduced rectal symptoms
persistence of healing and symptomatic relief ([3]; after twelve week oral course): persisted for more than six months
wound healing and symptoms ([3]; twelve week course, orally administered retinol palmitate): complete wound healing and symptomatic relief
wound healing (wound healing): accelerate wound healing

sucralfate
efficacy for radiation proctopathy (radiation proctopathy [1]): appear to be ineffective

Source: patent US7250445B1, “Anti-oxidant suppository for treating radiation proctopathy and other anorectal disorders” (priority 2005, dated 2007)
